Laboratory results from patent US20100305198A1, “CATIONIC LIPIDS” (THE UNIVERSITY COURT OF THE UNIVERSITY OF EDINBURG, priority 2007, published 2010).

Tests used:
HeLa cells = experiment: Transfection of pEGFP-C1 into HeLa cell line (GFP expression by flow cytometry); format: cell-based, Human
Method: (§1) The corresponding cationic lipid 6a-l (1 mM in methanol) with or without DOPE (1 mM in methanol) were mixed in different proportions and the organic solvent removed by evaporation in an oven (37° C.) overnight. The resultant thin films were then hydrated with PBS. The solutions were vortexed (10-20 s) and incubated at ambient temperature for 30 min. Plasmid DNA or siRNA solution (0.04 mg/mL in PBS or another isotonic solution) was subsequently added and the solution vortexed (10-20 s). The lipoplexes were incubated at room temperature for 30 min before being used.
Human HeLa cells were grown in RPMI supplemented with 4 mM glutamine, 10% FCS and 100 units/ml penicillin/streptomycin (RPMI-CM) until 80% confluence. Cells were then suspended using trypsin/EDTA and counted. 2×10^4 cells in 150 μL of RPMI-CM per well were seeded in 96 well plates and incubated overnight. The day afterwards, the different lipoplex formulations were added. Each experiment was performed in quadruplicate, using Effectene® Transfection Reagent (Qiagen) and Lipofectamine™ 2000 (Invitrogen) as positive control and untreated cells as negative control.
After incubation for two days at 37° C. and 5% CO2 (the change of media after transfection was not necessary), the green fluorescent protein (GFP) expression, consequence of transfecting the pEGFP-C1, was evidenced using a fluorescent microscope (Leica) and measured by flow cytometry. For the flow cytometry analysis, cells were washed twice with PBS, detached with trypsin/EDTA, harvested with 2% ferum bovine serum (FBS) in PBS, centrifuged and resuspended with 2% FBS in PBS and analyzed using a BD FACSaria flow cytometer. Transfection efficiency was measured as percentage of transfected cells and total mean fluorescence. […] The number of cells analyzed per sample was 10,000. […] Each point represents a cell. The second column of graphs represents cell number in the y-axis and fluorescence intensity in the x-axis. All the graphs have been divided into two populations of cells according with the fluorescence intensity in order to give a reference for the transfection analysis: in the untransfected cell control P1 comprises 95% of the total number of cells analyzed; when cells are transfected with compound 6f P1 comprises 19.1% of the total number of cells analyzed; within the cells transfected with Effectene® Transfection Reagent P1 comprises 35.8% of the total number of cells analyzed; when cells transfected with Lipofectamine™ 2000, P1 comprises 49.8% of the total number of cells analyzed. FITC-A Mean is the mean fluorescence (arbitrary units) calculated for each population. The mean fluorescence calculated for P2 of the cells transfected with compound 6f is 120,059, which is, by far, the best result of (A)-(D).

[1] = tested on: human embryonic kidney (HEK) 293T cell line; experiment: Transfection of pEGFP-C1 into HEK293T cell line (flow cytometry); format: cell-based
Method: as §1

[2] = tested on: B16F10 mouse melanoma cells; experiment: Transfection of pEGFP-C1 into B16F10 cell line (flow cytometry); format: cell-based
Method: as §1

GFP-expressing mES cells = experiment: Transfection of siRNA into GFP-expressing mouse stem cells (GFP knock-down, flow cytometry); format: cell-based; details: 48 h
Method: as §1
mES cells were grown in GMEM supplemented with 4 mM glutamine and 10% FBS in the absence of antibiotic until 80% confluence. Cells were then suspended using trypsin/EDTA and counted. 2×10^4 cells in 150 μL of GMEM-CM per well were seeded in 96-well plates and incubated overnight. The day afterwards, the different lipoplex formulations were added. […]
After incubation for two days at 37° C. and 5% CO2 (change of media after transfection was not necessary), the green fluorescent protein (GFP) reduced expression was measured by flow cytometry. For the flow cytometry analysis, cells were washed twice with PBS, detached with trypsin/EDTA, harvested with 2% FBS in PBS, centrifuged and resuspended with 2% FBS in PBS and analyzed using a BD FACSaria flow cytometer. […] In Vivo Transfection and Non-Invasive Luminescence Imaging from Living Mice

mouse lung = experiment: In vivo transfection of luciferase-reporter plasmid (pLux) by intratracheal instillation and non-invasive luminescence imaging
Method: Mice were anesthetized and intubated following standard protocols. 16 μg of a luciferase-reporter plasmid (pLux, 4-6 mg/mL in PBS or another isotonic buffer) was complexed with Oleyl derivative 6i (N/P 12, 1:2 mol mixture with DOPE) following the protocol described before. Lipoplex formulation (total volume=50 μL) and naked plasmid (16 μg of plasmid in 50 μL of PBS) were then administrated into the lung by direct intratracheal instillation through peroral intubation.
Firefly luciferin (15 mg/kg) was intraperitoneally administrated to the anesthetized mice half an hour before scanning for luminescence. Mice were then imaged every 2 minutes using an IVIS SPECTRUM imaging device. FIGS. 9 and 10 show the non-invasive in vivo luminescence imaging of anesthetized mice transfected with 16 μg of a luciferase-reporter plasmid (pLux) complexed with derivative 6i (left mouse) and naked plasmid (right mouse) 72 and 120 hours after instillation respectively.

Structure (SMILES) | P1 population as % of the total number of cells analyzed (HeLa cells; HeLa 48 h after transfection with reporter plasmid, 10,000 cells per sample, P1 = 95% in untransfected control, 6f at N/P 12, 1:2 mol mixture with DOPE) | Mean fluorescence (FITC-A Mean) calculated for P2 (HeLa cells; HeLa 48 h after transfection, N/P 12, 1:2 mol mixture with DOPE) | Transfection of HeLa cells compared with the positive controls (Lip2000 and Effectene) (HeLa cells; pEGFP-C1, 48 h, N/P ratio 12, 1:2 mol mixture with DOPE) | % of GFP-expressing cells calculated via flow cytometry [1] | % of GFP-expressing cells calculated via flow cytometry [2] | Knock-down of GFP expression compared with Lipofectamine 2000 (GFP-expressing mES cells; GFP-expressing mES cells) | Knock-down of GFP expression (GFP-expressing mES cells; GFP-transformed mouse stem cells, N/P 12, 1:2 mol mixture with DOPE, preliminary assays) | In vivo luminescence after luciferin (mouse lung; 16 μg pLux complexed with lipid (N/P 12, 1:2 mol mixture with DOPE), intratracheal instillation, 72 and 120 hours after instillation) | Health of mice during the study (mouse lung; lipoplex instilled into the lung, followed on a daily basis) | Percentage of transfected (GFP-expressing, fluorescent) cells (HeLa cells; HeLa 48 hours after transfection with GFP-reporter plasmid, FIG. 6)
CCCCCCCCCCCCCCC(=O)NC(COC(=O)CCCN)(COC(=O)CCCN)COC(=O)CCCN [Compound 6f, N-[tris-(4-aminobutiryloximethyl)methyl]pentadecamide] | 19.1% | 120,059 arbitrary units | much better than the two positive controls | 62% | 43% | better than Lipofectamine™ 2000 | 40% |  |  | 
CCCCCCCCC=CCCCCCCCC(=O)NC(COC(=O)CCCN)(COC(=O)CCCN)COC(=O)CCCN [Compound 6i, N-[tris-(4-aminobutiryloximethyl)methyl]-9-octadecenamide] |  |  |  | 54% | 61% |  |  | positive luminescence was detected | behaved healthily | 
CCCCCCCCC=CCCCCCCCCOC(=O)CCC(=O)NC(COC(=O)CCCN)(COC(=O)CCCN)COC(=O)CCCN [Compound 13b, 9-octadecenyl [tris(4-aminobutanoyloxymethyl)methyl]amidosuccinate] |  |  |  |  |  |  |  |  |  | 79%
